“Also recorded” adds a separate entry of the source.
How the values were obtained:
Helicobacter pylori = experiment: Growth inhibition on a bacterial lawn (filter diffusion); format: cell-based; conditions: solution on filter
Description: To determine if AMP peptide inhibits growth of H. pylori, a lawn of bacteria was prepared on a culture dish. A small circular filter was placed in the center of the dish, a solution of a test agent was placed on the filter so it diffused onto the lawn, and its effect on bacterial growth around the filter was measured. AMP peptide 77-97 (SEQ ID NO: 12) (Table 1), a scrambled version of this AMP peptide (negative control) (SEQ ID NO: 19), or the antibiotic clarithromycin (positive control) was added to a filter on different cultures. […] In addition, AMP peptide could serve as a therapeutic agent to treat H. pylori infections in the stomach, and thereby prevent the capacity of this organism to cause gastritis, gastric ulcers, and gastric adenocarcinomas.

AGS cells = experiment: Growth of gastric epithelial AGS cells (cell count four days later); format: cell-based, human; conditions: for growth stimulation of AGS cells (in words): peptide 77-97 8 μg/ml, EGF 50 ng/ml at saturating doses
Description: (§1) To characterize the capacity of gastric and intestinal cells to respond to AMP-18, AGS gastric adenocarcinoma cells, HAE human gastric antrum mucosa primary cultures transformed with SV40 large T antigen, rat diploid small intestinal epithelial cells of the IEC-6 (FIG. 15) and IEC-18 lines, NCI N-87 gastric carcinoma cells, and SK-GT5 gastroesophageal adenocarcinoma cells were studied; human WI-38 fibroblasts and HeLa cells served as non-GI control cell lines. Mitogenesis was assayed by performing cell counts 3 to 4 days after exposing cells to the agent of interest, trypsinizing the culture to prepare single cells, and confirming this while counting them in a hemocytometer.

[1] = tested on: occludin, ZO-1, ZO-2, claudin-5, E-cadherin, JAM; experiment: Accumulation of tight and adherens junction proteins in C2 cells (immunoblot of insoluble fraction, confocal microscopy); format: cell-based, human; conditions: 8 hr; peptides 8 μg/ml, EGF 50 ng/ml
Description: To find out how the peptide exerts its cytoprotective effect, C2 cell monolayers were treated with AMP peptide, and oxidant injury was induced with monochloramine 18 hours later. Changes in the levels of specific tight junction (TJ) proteins were checked. Cells were lysed, and proteins of the insoluble/particulate fraction were studied by immunoblotting. […] This observation represents the first evidence that AMP peptide enhances accumulation of specific TJ proteins in colonic epithelial cells. […] To carry out this experiment, C2 cells were exposed to AMP peptide for different periods of time, the NP-40-insoluble fraction was obtained, Western blots were prepared, and the amount of each immunoreactive protein was quantified. A 65% increase in immunoreactivity of each protein compared to control was detected for occludin after 2 hr, and for ZO-1 at 8 hr. Hsc73, which is constitutively expressed in these cells, was not altered by exposure to AMP peptide for up to 18 hr.
Confluent monolayers of C2 cells were treated with AMP peptide or vehicle for 8 hr. Cells were then collected, proteins in the NP-40-insoluble fraction were separated by SDS-PAGE, immunoblots were prepared, and the relative amounts of immunoreactive proteins were compared by densitometric analysis. […] These changes appear relatively specific for occludin, ZO-1, ZO-2, claudin-5, E-cadherin, and JAM because they were not observed for several other proteins localized in the TJ (claudin-1, claudin-2), adherens junction (β-catenin), plasma membrane (Na-K-2Cl cotransporter, α or β subunit of Na-K-ATPase), or cytosol (Rho A, hsc73).
To better understand the mechanism(s) by which AMP peptide enhances accumulation of TJ-associated proteins, experiments were performed to determine whether the peptide exerted its effect at the apical or basolateral surface of C2 cells. Monolayers of C2 cells were grown on Transwell filters, AMP peptide (8:g/ml) was added to the apical or basolateral compartment of the Transwell, and cells were harvested 8 hr later. The NP-40-insoluble fraction was obtained, its proteins separated, and immunoblots were prepared.

IEC-18 cells = experiment: Growth of confluent cultures of IEC-18 cells (cell count); format: cell-based, rat
Description: Confluent cultures of IEC-18 cells were prepared. One day later, medium was aspirated and replaced with 5 ml of DMEM containing CS (0.5%) and insulin, without (control) or with mitogenic peptide 58-99 (8 μg/ml). Sister plates receiving 1 ml medium and different amounts of peptide 67-85 were incubated at 1 hr at 38° C. on a CO2 incubator, and then an additional 4 ml of medium was added to each dish. Peptide 58-99 was added to 2 of the 4-sister plates at each concentration of peptide 67-85, and the number of cells was counted. […] Stimulation of cell growth by mitogenic peptide 58-99 was completely abolished by preincubation of cells with 0.25 μg/ml of peptide 67-85. […] Values for the number of cells per culture are shown relative to multiplication of cells exposed to the vehicle during the same period.
Urea (6 M) was employed to release proteins from the insoluble fraction solubilize rhAMP-18 containing the His6-tag (SEQ ID NO: 16), and make it available to bind to the Ni^2+-charged resin from which it was subsequently eluted with a gradient of imidazole (0 to 200 mM). The amount of eluted rhAMP-18 was measured using the BCA assay, and the appearance of a single band at the predicted size of 19-20 kD was confirmed by SDS-PAGE followed by immunoblotting. To determine if eluted rhAMP-18 renatured to assume a structure that was mitogenic, aliquots of the eluate (following removal of urea and imidazole by dialysis) were added to cultures of IEC-18 cells and the number of cells was counted 4 days later. […] AMP peptide 77-97 refers to the mature protein; same as peptide 97-117 of human precursor protein: Table 1. These observations indicate that biologically active recombinant human AMP-18 that can be utilized in diverse clinical situations is available. The mitogenic potency of rhAMP-18 is in the nanomolar range which would be expected for a native gastric cell growth factor that participates in the maintenance and repair of the stomach in vivo.
as §1

[2] = tested on: BSC-1 epithelial cell line; experiment: Growth (mitogenesis) assay on confluent BSC-1 cells, cells counted 4 days later; format: cell-based, monkey; conditions: for K1/2; concentration for half-maximal growth stimulation / EC50: synthetic peptides of Table 1; for EC50: read-out: K1/2, concentration for half-maximal growth stimulation; for antagonism of the activity of peptide 78-119: inactive overlapping peptide with the mitogenic 42-mer; for antagonism of the activity of peptide 104-117: inactive peptide with the mitogenic 14-mer; for mitogenic activity (in words): compared with related peptides
From the text: Finding that a 42-amino acid peptide representing a central region of the novel antrum mucosal cell protein AMP-18 had mitogenic activity similar in character to that of the intact protein in pig and mouse antrum extracts (Table 1), has facilitated the characterization of the bio-active region of the molecule. […] Growth activity determinations have so far been accomplished with the kidney epithelial cell line as well as several gastric and intestinal lines.
Non-transformed monkey kidney epithelial cell line BSC-1 and other epithelial cell lines were used to assess effects on growth. In general, conditions were chosen for each line such that cells are grown to confluence in plastic dishes in supplemented growth medium with minimal calf (or fetal) serum for growth (Lieske et al., 1997); BSC-1 cells become confluent at 10^6/60 mm dish with 1% calf serum. At the start of the growth assay the medium on the confluent culture was aspirated and replaced with fresh medium with minimal serum to maintain viability (0.01% for BSC-1) cells. AMP-18 preparations were added to the culture medium and 4 days later the cell monolayer was rinsed, detached with trypsin, and the cells were counted using a hemocytometer. Determination of the capacity of AMP-18 to initiate DNA synthesis was measured by the incorporation of [^3H]thymidine (Toback, 1980); to confirm the DNA synthesis assay, autoradiograms of leveled cells were counted (Kartha and Toback, 1985).

CC[C@H]1OC(=O)[C@H](C)[C@@H](O[C@H]2C[C@@](C)(OC)[C@@H](O)[C@H](C)O2)[C@H](C)[C@@H](O[C@@H]2O[C@H](C)C[C@H](N(C)C)[C@H]2O)[C@](C)(OC)C[C@@H](C)C(=O)[C@H](C)[C@@H](O)[C@]1(C)O [clarithromycin]
growth of H. pylori lawn (Helicobacter pylori): inhibited growth

GKPLGQPGKVPKLDGKEPLAK [97–117**, scrambled version of AMP peptide 77-97, negative control, reference compound]
growth of H. pylori lawn (Helicobacter pylori; listed as scrambled AMP peptide): not | growth of H. pylori lawn (Helicobacter pylori; listed as scrambled peptide): did not inhibit growth | growth stimulation of AGS cells (in words) (AGS cells): not stimulated | accumulation of occludin and ZO-1 (specificity) [1]: not replicated | growth stimulation of IEC-18 cells (in words) (IEC-18 cells; added alone, peptides up to 8 μg/ml): did NOT stimulate growth | growth stimulation of BSC-1 cells ([2]; concentrations up to 8 μg/ml): did NOT stimulate growth

GPGG [110–113]
K1/2; concentration for half-maximal growth stimulation [2]: Inactive

KGPGGPPPK [109–117]
EC50 [2]: 2500 nM

KKEVMPSIQSLDALVKEKK [87–105]
inhibition of growth stimulation by peptide 58-99 (AGS cells): completely inhibits | growth stimulation of AGS cells (in words) (AGS cells): not stimulated | concentration nearly abolishing growth-stimulatory effect of peptide 58-99 (IEC-18 cells; FIG. 17): ~0.1 µg/mL | concentration completely abolishing growth stimulation by peptide 58-99 (IEC-18 cells; preincubation of cells, peptide 58-99 8 μg/ml): 0.25 µg/mL | antagonism of the activity of the protein in stomach extracts [2]: block | antagonism of the activity of peptide 78-119 [2]: block; also recorded: antagonize | antagonism of the activity of peptide 104-117 ([2]; listed as peptide 87-105): blocks; also recorded: antagonizes | K1/2; concentration for half-maximal growth stimulation [2]: Inactive

KKLQGK [104–109]
EC50 [2]: 7400 nM

KKLQGKGPGGPPPK [104–117, 14 amino acid mitogenic domain]
activity relative to the 42-amino acid peptide ([2]; from the higher K1/2 value): 30-40% | EC50 [2]: 800 nM

KKLQGKGPGGPPPKGLMY [104–111]
mitogenic activity (in words) [2]: slightly less activity | EC50 [2]: 1000 nM

KKTCIVHKMKK [78–88]
antagonism of the activity of the protein in stomach extracts [2]: block | antagonism of the activity of peptide 78-119 [2]: block; also recorded: antagonize | antagonism of the activity of peptide 104-117 ([2]; listed as 68-88): NOT | antagonism of the activity of peptide 104-117 ([2]; listed as peptide 78-88): does not | K1/2; concentration for half-maximal growth stimulation [2]: Inactive

KKTCIVHKMKKEVMPSIQSLDALVKEKKLQGKGPGGPPPKGL [78–119, 42 amino acid peptide of human preAMP-18, peptide 58-99 of the mature protein]
increase in cell number (IEC-18 cells; 3 days, peptide 58-99 8 μg/ml, EGF 50 ng/ml, vehicle 290%): 407% | mitogenic activity (in words) [2]: good mitogenic activity | EC50 [2]: 300 nM

LDALVKEKKLQGKGPGGPPPKGLMY [97–121]
mitogenic activity (in words) [2]: more active | EC50 [2]: 200 nM

LDTMVKEQK . . . GKGPGGAPPKDLMY (LDTMVKEQKGKGPGGAPPKDLMY) [97–119]
EC50 [2]: 200 nM

B1: intact AMP protein: the intact, natural gastrokine AMP-18 protein of antrum mucosa (protein)
chain: YTVNINGNDGNVDGSGQQSVSINGVHNVANIDNNNGWDSWNSLWDYENSFAATRLFSKKSCIVHRMNKDAMPSLQDLDTMVKEQKGKGPGGAPPKDLMYSVNPTRVEDLNTFGPKIAGMCRGIPTYVAEEIPGPNQPLYSKKCYTADILWILRMSFCGTSVETY
estimate for the activity of the intact AMP protein ([2]; estimate): 1 to 10 nM

Source: patent US7629317B2, “Control of growth and repair of gastro-intestinal tissues by gastrokines and inhibitors” (The University of Chicago, priority 2001, dated 2009)
